# Reference: patent US10039283B2, “Substituted pyrazolyl-nicotin(thio)amide derivatives and their use as fungicides” (BAYER CROPSCIENCE AKTIENGESELLSCHAFT, priority 2014, dated 2018)
# Experiment: Log P by HPLC on reversed phase, method [a], acidic range (0.1% formic acid)
# Format: physicochemical
# Conditions: LC-UV, 0.1% formic acid in water and acetonitrile
row,Structure (SMILES),LogP
1,O=C(Nc1cnn(-c2ccccc2F)c1C(F)(F)F)c1ccc(Cl)nc1C(F)F [Example 158],3.15^[a]
2,CC(C)c1ccc(-n2ncc(NC(=O)c3ccc(Cl)nc3C(F)F)c2C(F)(F)F)cc1 [Example 159],4.13^[a]
3,O=C(Nc1cnn(-c2c(Cl)cccc2Cl)c1C(F)(F)F)c1ccc(Cl)nc1C(F)F [Example 160],3.53^[a]
4,O=C(Nc1cnn(-c2cc(Cl)cc(Cl)c2)c1C(F)(F)F)c1ccc(Cl)nc1C(F)F [Example 161],4.23^[a]
5,O=C(Nc1cnn(-c2ccc(Cl)cc2Cl)c1C(F)(F)F)c1ccc(Cl)nc1C(F)F [Example 162],3.85^[a]
6,O=C(Nc1cnn(-c2cccc(Cl)c2Cl)c1C(F)(F)F)c1ccc(Cl)nc1C(F)F [Example 163],3.71^[a]
7,N#Cc1c(NC(=O)c2ccc(Cl)nc2C(F)F)cnn1-c1ccccc1 [Example 164],2.90^[a]
8,COc1cnc(C(F)F)c(C(=O)Nc2cnn(-c3cccc(Cl)c3Cl)c2C(F)(F)F)c1 [Example 165],3.37^[a]
9,Cc1cnc(C(F)F)c(C(=O)Nc2cnn(-c3ccccc3)c2C#N)c1 [Example 166],2.51^[a]
10,Cc1cnc(C(F)F)c(C(=O)Nc2cnn(-c3cccc(Cl)c3Cl)c2C(F)(F)F)c1 [Example 167],3.35^[a]
11,COc1cnc(C(F)F)c(C(=O)Nc2cnn(-c3ccc(Cl)cc3Cl)c2C(F)(F)F)c1 [Example 168],3.53^[a]
12,COc1cnc(C(F)F)c(C(=O)Nc2cnn(-c3ccc(Cl)cc3)c2C(F)(F)F)c1 [Example 169],3.29^[a]
13,Cc1cnc(C(F)F)c(C(=O)Nc2cnn(Cc3ccccc3)c2C(F)(F)F)c1 [Example 170],2.95^[a]
14,Cc1cnc(C(F)F)c(C(=O)Nc2cnn(-c3c(Cl)cccc3Cl)c2C(F)(F)F)c1 [Example 171],3.16^[a]
15,O=C(Nc1cnn(-c2ccc(Cl)cc2Cl)c1C(F)(F)F)c1ccc(Br)nc1C(F)F [Example 172],3.96^[a]
16,O=C(Nc1cnn(Cc2ccccc2)c1C(F)(F)F)c1ccc(Cl)nc1C(F)F [Example 173],3.33^[a]
17,Cc1cnc(C(F)F)c(C(=O)Nc2cnn(-c3cc(Cl)cc(Cl)c3)c2C(F)(F)F)c1 [Example 174],3.89^[a]
18,Cc1cnc(C(F)F)c(C(=O)Nc2cnn(-c3cc(Cl)ccc3Cl)c2C(F)(F)F)c1 [Example 175],3.39^[a]
19,O=C(Nc1cnn(-c2cc(Cl)ccc2Cl)c1C(F)(F)F)c1ccc(Cl)nc1C(F)F [Example 176],3.76^[a]
20,COc1cnc(C(F)F)c(C(=O)Nc2cnn(-c3cc(Cl)ccc3Cl)c2C(F)(F)F)c1 [Example 177],3.39^[a]
21,O=C(Nc1cnn(-c2cc(Cl)ccc2Cl)c1C(F)(F)F)c1ccc(Br)nc1C(F)F [Example 178],3.85^[a]
22,Cc1cnc(C(F)F)c(C(=O)Nc2cnn(-c3ccc(Cl)c(Cl)c3)c2C(F)(F)F)c1 [Example 179],3.76^[a]
23,O=C(Nc1cnn(-c2ccc(Cl)c(Cl)c2)c1C(F)(F)F)c1ccc(Cl)nc1C(F)F [Example 180],4.11^[a]

row,Structure (SMILES),LogP
1,O=C(Nc1cnn(-c2ccc(Cl)c(Cl)c2)c1C(F)(F)F)c1ccc(Br)nc1C(F)F [Example 181],4.19^[a]
2,O=C(Nc1cnn(-c2ccc(C(F)(F)F)cc2)c1-c1ccc(Cl)cc1)c1cccnc1C(F)F [Example 182],3.55^[a]
3,O=C(Nc1cnn(-c2ccc(Cl)cc2)c1Cl)c1cccnc1C(F)F [Example 183],2.55^[a]
4,O=C(Nc1cnn(-c2ccc(C(F)(F)F)cc2)c1-c1ccc(F)cc1)c1cccnc1C(F)F [Example 184],3.31^[a]
5,O=C(Nc1cnn(-c2ccc(C(F)(F)F)cc2)c1-c1cccc(F)c1)c1cccnc1C(F)F [Example 185],3.31^[a]
6,O=C(Nc1cnn(-c2ccc(C(F)(F)F)cc2)c1-c1ccccc1)c1cccnc1C(F)F [Example 186],3.24^[a]
7,O=C(Nc1cnn(-c2ccc(Cl)cc2)c1-c1ccc(F)cc1)c1cccnc1C(F)F [Example 187],3.10^[a]
8,O=C(Nc1cnn(-c2ccc(C(F)(F)F)cc2)c1Cl)c1cccnc1C(F)F [Example 188],2.81^[a]
9,COc1ccc(-n2ncc(NC(=O)c3cccnc3C(F)F)c2Cl)cc1 [Example 189],2.09^[a]
10,O=C(Nc1cnn(-c2ccc(F)cc2)c1Cl)c1cccnc1C(F)F [Example 190],2.14^[a]
11,O=C(Nc1cnn(-c2ccccc2Cl)c1Cl)c1cccnc1C(F)F [Example 191],2.17^[a]
12,O=C(Nc1cnn(-c2ccc(F)cc2)c1Br)c1cccnc1C(F)F [Example 192],2.17^[a]
13,COc1ccc(-n2ncc(NC(=O)c3cccnc3C(F)F)c2Br)cc1 [Example 193],2.09^[a]
14,O=C(Nc1cnn(-c2ccc(Cl)cc2)c1-c1ccc(Cl)cc1)c1cccnc1C(F)F [Example 194],3.35^[a]
15,O=C(Nc1cnn(-c2ccc(Br)cc2)c1-c1ccc(F)cc1)c1cccnc1C(F)F [Example 195],3.20^[a]
16,O=C(Nc1cnn(-c2ccc(Br)cc2)c1-c1ccccc1)c1cccnc1C(F)F [Example 196],3.10^[a]
17,O=C(Nc1cnn(-c2ccc(Cl)cc2)c1-c1cccc(F)c1)c1cccnc1C(F)F [Example 197],3.07^[a]
18,O=C(Nc1cnn(-c2ccc(Cl)cc2)c1-c1ccccc1)c1cccnc1C(F)F [Example 198],2.99^[a]
19,O=C(Nc1cnn(-c2ccc(Br)cc2)c1-c1cccc(Cl)c1)c1cccnc1C(F)F [Example 199],3.46^[a]
20,O=C(Nc1cnn(-c2ccc(Br)cc2)c1-c1ccc(Cl)cc1)c1cccnc1C(F)F [Example 200],3.46^[a]
21,O=C(Nc1cnn(-c2ccc(Br)cc2)c1-c1cccc(F)c1)c1cccnc1C(F)F [Example 201],3.19^[a]
22,O=C(Nc1cnn(-c2cc(Cl)cc(Cl)c2)c1Cl)c1cccnc1C(F)F [Example 202],3.19^[a]

# Now from value to compound:
row,LogP,Structure (SMILES)
1,3.23^[a],O=C(Nc1cnn(-c2cc(Cl)cc(Cl)c2)c1Br)c1cccnc1C(F)F [Example 203]
2,2.44^[a],CCc1c(NC(=O)c2cc(C)cnc2C(F)F)cnn1-c1ccccc1C [Example 204]
3,2.60^[a],Cc1cnc(C(F)F)c(C(=O)Nc2cnn(-c3ccccc3C)c2C(C)C)c1 [Example 205]
4,2.57^[a],CCc1c(NC(=O)c2cc(C)cnc2C(F)F)cnn1-c1cccc(C)c1 [Example 206]
5,2.57^[a],CCc1c(NC(=O)c2cc(C)cnc2C(F)F)cnn1-c1ccc(C)cc1 [Example 207]
6,2.73^[a],Cc1ccc(-n2ncc(NC(=O)c3cc(C)cnc3C(F)F)c2C(C)C)cc1 [Example 208]
7,2.59^[a],Cc1cnc(C(F)F)c(C(=O)Nc2cnn(-c3ccccc3Cl)c2C(C)C)c1 [Example 209]
8,2.84^[a],Cc1cnc(C(F)F)c(C(=O)Nc2cnn(-c3cccc(Cl)c3)c2C(C)C)c1 [Example 210]
9,2.86^[a],Cc1cnc(C(F)F)c(C(=O)Nc2cnn(-c3ccc(Cl)cc3)c2C(C)C)c1 [Example 211]
10,2.41^[a],CCc1c(NC(=O)c2cc(C)cnc2C(F)F)cnn1-c1ccccc1Cl [Example 212]
11,2.71^[a],CCc1c(NC(=O)c2cc(C)cnc2C(F)F)cnn1-c1cccc(Cl)c1 [Example 213]
12,2.73^[a],CCc1c(NC(=O)c2cc(C)cnc2C(F)F)cnn1-c1ccc(Cl)cc1 [Example 214]
13,1.85^[a],COc1c(NC(=O)c2cccnc2C(F)F)cnn1-c1ccccc1Cl [Example 215]
14,3.02^[a],COc1c(NC(=O)c2cccnc2C(F)F)cnn1-c1cc(Cl)cc(Cl)c1 [Example 216]
15,2.18^[a],O=C(Nc1cnn(-c2ccccc2Cl)c1Br)c1cccnc1C(F)F [Example 217]
16,2.32^[a],COc1c(NC(=O)c2cccnc2C(F)F)cnn1-c1ccc(Cl)cc1 [Example 218]
17,2.63^[a],COc1c(NC(=O)c2cccnc2C(F)F)cnn1-c1ccc(C(F)(F)F)cc1 [Example 219]
18,2.50^[a],O=C(Nc1cnn(-c2ccc(Cl)cc2)c1Br)c1cccnc1C(F)F [Example 220]

row,LogP,Structure (SMILES)
1,2.88^[a],O=C(Nc1cnn(-c2ccc(Cl)cc2)c1OCC(F)(F)F)c1cccnc1C(F)F [Example 221]
2,2.60^[a],O=C(Nc1cnn(-c2ccc(Cl)cc2)c1OCC(F)F)c1cccnc1C(F)F [Example 222]
3,2.64^[a],N#Cc1c(NC(=O)c2cccnc2C(F)F)cnn1-c1ccc(Cl)cc1 [Example 223]
4,3.25^[a],O=C(Nc1cnn(-c2ccc(Cl)cc2)c1SC(F)(F)F)c1cccnc1C(F)F [Example 224]
5,2.62^[a],CCOc1c(NC(=O)c2cccnc2C(F)F)cnn1-c1ccc(Cl)cc1 [Example 225]
6,2.86^[a],CC(C)Oc1c(NC(=O)c2cccnc2C(F)F)cnn1-c1ccc(Cl)cc1 [Example 226]
7,2.95^[a],CCCOc1c(NC(=O)c2cccnc2C(F)F)cnn1-c1ccc(Cl)cc1 [Example 227]
8,3.43^[a],O=C(Nc1cnn(-c2ccc(Br)cc2)c1SC(F)(F)F)c1cccnc1C(F)F [Example 228]
9,3.59^[a],CCCc1ccc(-n2ncc(NC(=O)c3cccnc3C(F)F)c2C(F)(F)F)cc1 [Example 229]
10,2.88^[a],CCOc1ccc(-n2ncc(NC(=O)c3cccnc3C(F)F)c2C(F)(F)F)cc1 [Example 230]
11,3.79^[a],CC(C)(C)c1ccc(-n2ncc(NC(=O)c3cccnc3C(F)F)c2C(F)(F)F)cc1 [Example 231]
12,3.59^[a],O=C(Nc1cnn(-c2ccc(-c3ccccc3)cc2)c1C(F)(F)F)c1cccnc1C(F)F [Example 232]
13,3.59^[a],O=C(Nc1cnn(-c2ccc(Oc3ccccc3)cc2)c1C(F)(F)F)c1cccnc1C(F)F [Example 233]
14,3.25^[a],O=C(Nc1cnn(-c2ccc(I)cc2)c1C(F)(F)F)c1cccnc1C(F)F [Example 234]
15,2.68^[a],O=C(Nc1cnn(-c2ccc(Br)cc2)c1OCC(F)F)c1cccnc1C(F)F [Example 235]
16,2.67^[a],O=C(Nc1cnn(-c2ccc(Cl)cc2)c1C(F)(F)F)c1cccnc1CF [Example 236]
17,2.12^[a],Cc1ncccc1C(=O)Nc1cnn(-c2ccc(Cl)cc2)c1C(F)(F)F [Example 237]
